The text below walks through data of ChEMBL document CHEMBL3991941, “GLEPP-1 inhibitors in the treatment of autoimmune and/or inflammatory disorders” (2011).

The source made the active and inactive calls. The rule behind the calls is not given here.

For experiment [1], the system named is Mus musculus. In words: Antiinflammatory activity in C3H mouse model of thioglycollate-induced lymphocyte recruitment assessed as decrease in blood neutrophils at 30 mg/kg, po dosed 15 mins before thioglycollate stimulation by Beckman Coulter counting based cell counting method relative to untreated control. The class given is functional. Also noted: scale not given: the % may be the effect or the level left.

Experiment [2] concerns Mus musculus. In words: Antiinflammatory activity in C3H mouse model of thioglycollate-induced lymphocyte recruitment assessed as decrease in blood lymphocytes at 30 mg/kg, po dosed 15 mins before thioglycollate stimulation by Beckman Coulter counting based cell counting method relative to untreated control. The class given is functional. More on the design: scale not given: the % may be the effect or the level left.

Experiment [3] has as its system Mus musculus. The experiment in a line: Antiinflammatory activity in C3H mouse model of thioglycollate-induced lymphocyte recruitment assessed as decrease in blood macrophages at 30 mg/kg, po dosed 15 mins before thioglycollate stimulation by Beckman Coulter counting based cell counting method relative to untreated control. The format is functional. More on the design: scale not given: the % may be the effect or the level left.

In experiment [4] the test system is Mus musculus. The experiment in a line: Reduction in colon weight in Balb/c mouse model of dextran sodium sulfate-induced ulcerative colitis at 10 mg/kg, po dosed twice daily at days 3,4, 5 and 6 after the induction of the ulcerative colitis and measured 7 days post ulcerative colitis induction. The format is functional. Also noted: scale not given: the % may be the effect or the level left.

The test system of experiment [5] is Mus musculus. The experiment in a line: Reduction in colon weight in Balb/c mouse model of dextran sodium sulfate-induced ulcerative colitis at 30 mg/kg, po dosed twice daily at days 3,4, 5 and 6 after the induction of the ulcerative colitis and measured 7 days post ulcerative colitis induction. More on the design: scale not given: the % may be the effect or the level left. The format is functional.

The test system of experiment [6] is Mus musculus. The experiment in a line: Reduction in colon weight in Balb/c mouse model of dextran sodium sulfate-induced ulcerative colitis at 100 mg/kg, po dosed twice daily at days 3,4, 5 and 6 after the induction of the ulcerative colitis and measured 7 days post ulcerative colitis induction. The class given is functional. More on the design: scale not given: the % may be the effect or the level left.

Experiment [7] has as its system Mus musculus. The experiment in a line: Reduction in splenomegaly in Balb/c mouse model of dextran sodium sulfate-induced ulcerative colitis at 30 mg/kg, po dosed twice daily at days 3,4, 5 and 6 after the induction of the ulcerative colitis and measured 7 days post ulcerative colitis induction. The format is functional. Also noted: scale not given: the % may be the effect or the level left.

For experiment [8], the system named is Mus musculus. In words: Reduction in splenomegaly in Balb/c mouse model of dextran sodium sulfate-induced ulcerative colitis at 100 mg/kg, po dosed twice daily at days 3,4, 5 and 6 after the induction of the ulcerative colitis and measured 7 days post ulcerative colitis induction. The format is functional. More on the design: scale not given: the % may be the effect or the level left.

Experiment [9] concerns Mus musculus. The experiment in a line: Reduction in body weight loss in Balb/c mouse model of dextran sodium sulfate-induced ulcerative colitis at 10 to 100 mg/kg, po dosed twice daily at days 3,4, 5 and 6 after the induction of the ulcerative colitis and measured 7 days post ulcerative colitis induction. The class given is functional, organism-based.

For `CCCCc1ccc(C#Cc2ccc(CN(CC3CCCC3)c3ccc(F)c(C(=O)O)c3)cc2)cc1`, the Activity is 36% in experiment [1], 23% in [2] and 37% in experiment [3].
For the compound `CCCCCCN(Cc1ccc(C#Cc2ccc(CCCC)cc2)cc1)c1ccc(O)c(C(=O)O)c1`, the Activity in [1] is recorded as 44%; in [2], 47%; in experiment [3], 50%; in experiment [4] it was -22%; in experiment [5] it was -28%; in experiment [6], -35%. Further, the Activity in experiment [7] was -31%; in experiment [8], -65%.
As to `CCCCCCN(Cc1ccc(C#Cc2ccc(CCCC)cc2)cc1)c1ccc(C(=O)O)c(O)c1`, the values for the Activity in experiment [1], in [2] and in experiment [3] were 45%, 23% and 65%, respectively.
In the case of `CCCCCCc1ccc(C#Cc2ccc(N(Cc3ccc(C(F)(F)F)cc3)C(=O)C(=O)O)cc2)cc1`, the Activity in experiment [1] worked out at 15%; in [2], 21%; in experiment [3] it was 32%.
The like results for `CCCCCCN(Cc1ccc(C#Cc2ccc(CCCC)cc2)cc1)C(=O)c1ccc(O)c(C(=O)O)c1` were, in that order, 41%, 41% and 62%.
The like results for `CCCCCCN(Cc1ccc(F)c(C(=O)O)c1)c1ccc(C#Cc2ccc(CCCC)cc2)cc1` were, in that order, 28%, 8% and 32%.
With `CCCCCCN(Cc1ccccc1C#Cc1ccc(CCCC)cc1)C(=O)c1ccc(O)c(C(=O)O)c1`, the Activity in experiment [4] is -47%; in experiment [5] it was -50%; in experiment [7] it was -25%; in experiment [8], -45%. In [9], the outcome was Active.
Consider `CCCCCCc1ccc(C#Cc2ccc(CN(Cc3ccc(C(F)(F)F)cc3)C(=O)C(=O)O)cc2)cc1`, for which the values for the Activity in experiment [1], in experiment [2] and in experiment [3] were 27%, 29% and 27%, respectively.
With `CCCCCCN(Cc1ccc(C#Cc2ccc(CCC)cc2)cc1)c1ccc(F)c(C(=O)O)c1`, the results for the Activity in experiment [1], in experiment [2] and in [3] were -6%, 4% and 26%, respectively.
In the case of `O=C(O)C(=O)N(Cc1ccc(C#CCCCCCCCCCF)cc1)Cc1ccc(C(F)(F)F)cc1`, the Activity in [1] was 16%; in [2], 24%; in [3], 36%.
In the same order, the values of `CCCCCCN(Cc1ccc(C#Cc2ccc(C(C)(C)C)cc2)cc1)c1ccc(F)c(C(=O)O)c1` are 36%, 13% and 42%.
In the same order, the values of `CCCCCCc1ccc(C#Cc2ccc(CN(C(=O)C(=O)O)C(C)(C)c3cccc(Cl)c3)cc2)cc1` are 25%, 39% and 52%.
